What was measured:
DMS273 cells = test: CCK-8 cytotoxicity assay, 72 h; format: cell-based; settings: Homo sapiens, DMS-273
Description: (§1) We have determined cell cytotoxicity toward a specific drug, employing Cell Counting Kit-8 (Dojindo Molecular Technologies, Rockville, MD) as previously described (15).
(§2) The expression levels of DRP1 and DHODH in SCLC lines were compared with non-malignant BEAS 2B cells. Elevated levels of DRP1 and pDRP1 at Ser^616 were detected in all tested SCLC cells. Higher expression of DHODH was also observed in all seven SCLC cell lines (FIG. 1C). Previous studies have shown that Leflu and its active metabolite Teri regulate mitochondrial morphology (9,10,26). To find the effects of these two drugs on DRP1, AA docking (27) method was used to search for the best binding pocket for inhibitor binding. […] Leflu has a medium docking score of −5.6 kcal/mol. […] In vitro cytotoxicity effect of Teri and Leflu was tested in a panel of SCLC cell lines. Ten SCLC cell lines were treated with increasing concentrations of each drug for 72 h. […] In contrast, IC50 doses were much higher for Leflu. Upon oral administration of Leflu, over 80% of the drug is converted to Teri (28), indicating a potential reason for higher sensitivity to Teri. Two cell lines, SBC3 and SBC5, with IC50 2 μM and 30 μM, respectively, for Teri were used for additional experiments. […] The inhibitory effect was higher with Teri in both cell lines (FIG. 2A).

H146 cells = test: CCK-8 cytotoxicity assay, 72 h; format: cell-based; settings: Homo sapiens, NCI-H146
Description: as §1, §2

H524 cells = test: CCK-8 cytotoxicity assay, 72 h; format: cell-based; settings: Homo sapiens, NCI-H524
Description: as §1, §2

panel of SCLC cell lines = test: CCK-8 cytotoxicity in a panel of SCLC cell lines (statements on the panel); format: cell-based, human; settings: 72 h
Description: The expression levels of DRP1 and DHODH in SCLC lines were compared with non-malignant BEAS 2B cells. […] Previous studies have shown that Leflu and its active metabolite Teri regulate mitochondrial morphology (9,10,26). […] In vitro cytotoxicity effect of Teri and Leflu was tested in a panel of SCLC cell lines. Ten SCLC cell lines were treated with increasing concentrations of each drug for 72 h.
Among the drugs approved for SCLC, lurbinectedin is used to treat patients with metastatic SCLC with disease progression. Lurbinectedin (Lur) is an inhibitor of RNA polymerase II, which is commonly hyperactivated in SCLC, resulting in excessive transcription in tumor cells (44). In this study, we tested the combination of Lur with Teri to see if it may reduce the viability of SCLC cells.

SBC3 cells [1] = test: IncuCyte S3 live-cell proliferation; format: cell-based, human
Description: (§3) FIGS. 2A-2I. Teriflunomide (Teri) affects the phosphorylation of DRP1 at Ser^616 and mitochondrial/nuclear morphology. FIG. 2A: Effect of Teri and Leflu on SBC3, and SBC5 cells proliferation was recorded by the Sartorius IncuCyte S3 live-cell analysis system (n=2, four technical replicates). […] FIG. 2B: Effect of Teri on DRP1 phosphorylation in SBC3 cells. Cell lysates were subjected to immunoblotting (n=3, biological replicates). FIG. 2C: The expression ratio of level of pDRP1 Ser^616 and Ser^637 to actin was calculated via densitometric analysis of each blot using ImageJ software. The detected ratio of pDRP1 Ser^616 to pDRP1 Ser^637 was calculated and compared in SBC3 cells. […] FIGS. 2D-2E: Calculating pDRP1 Ser^616 fluorescence signal by QuPath software. Bar graphs mean±SE, *p<0.05; **p<0.01; ***p<0.001; ****p<0.0001. Results were analyzed by ANOVA with Tukey post-test. FIG. 2F: The surface areas of SBC3 mitochondria and nuclei were quantified with Imaris Cells modules. The minimal number of SBC3 cells analyzed for each group was 103 (M1 10 μM), and the maximal was 383 (Control). FIG. 2G: SBC5 mitochondria and nuclei surface areas were quantified with Imaris Cells modules. The minimal number of SBC5 cells analyzed for each group was 357 (MDIVI1 10 μM) and the maximal was 570 (Control). Results were analyzed by ANOVA with Tukey post-test, *p<0.05; **p<0.01; ****p<0.0001. Mitochondria in control cells were closely packed around the nuclei and treatment with Teri rearranged the mitochondrial network and extended the area from the nuclei. […] SBC3 cells were treated with drugs for 18 hours, fixed with paraformaldehyde and subjected to IF staining with Tom 20 antibody, nuclei were stained with Hoechst 33342. Scale bar 10 μm. Right inserts represent shape of mitochondria for control and treatments. FIG. 2I: High resolution confocal IF images of mitochondria in SBC5 cells. Scale bar 10 μm. Right inserts represent shape of mitochondria for control and treatments.

SBC5 cells [2] = test: IncuCyte S3 live-cell proliferation; format: cell-based, human
Description: as §3

SBC3 cells [3] = test: Imaris quantification of mitochondrial and nuclear areas/morphology; format: cell-based, human
Description: (§4) Imaris 9.9.0 (Bitplane, AG), with Surfaces and Cells modules, was used to generate mitochondria morphology data from 2D images and 2D Z-stack subsets. Surfaces were used to evaluate individual mitochondria from cell monolayers and spheroids. Detection parameters were optimized for visible mitochondria and nuclei in each group with varying signal intensities. Roundness ratios were calculated from Surface generated Bounding Box 00 Length measurements. Object lengths less than 0.1 μm were excluded, and lengths greater than 1.26 μm were separately analyzed as clusters. Thresholds were uniformly applied to roundness ratios to categorize mitochondria morphology as elongated (<0.599), intermediate (≥0.600-0.649), or round/fragmentated (≥0.650). The percentage of cells from total number is based on a ratio. A perfectly round object has a ratio of 1.0. The Cells module was used to detect and quantify mitochondria and nucleus area from cell monolayers. Identical parameters were applied to all groups with cell boundary detection based on mitochondria signals. Imaris includes nuclei in cytoplasm measurements, so mitochondrial area is calculated by subtracting nucleus area from cell cytoplasm area. Abnormal nuclei were excluded (<100 μm^2, >750 μm^2).
MitoTracker Red and Hoechst 33342 were used to validate Teri and Leflu effects on intact mitochondrial morphology in SBC3 and SBC5 cells. M1 and MDIVI1 compounds were used as positive controls because they are promoters of mitochondrial fusion. Mitochondrial and nuclear areas were quantified by analyzing object surface area and intensity in Imaris 9.9.0.

SBC5 cells [4] = test: as above; format: cell-based, human; settings: for effect on mitochondrial areas: SBC5
Description: as §4
Next, we performed the same analysis with SBC5 cells. […] Mitochondrial elongation in SBC3 cells treated with Teri and Leflu is visible and correlates with Imaris Surface results. […] Although mitochondrial areas of SBC5 cells were not affected by Teri and Leflu treatments, elongations of individual mitochondria were detected with each treatment (FIG. 2I). […] Therefore, it is important to investigate the effects of Teri and Leflu on mitochondrial morphology and cell survival in combination with chemotherapeutic drugs.

| Compound | IC50 (DMS273 cells) | IC50 (H146 cells) | IC50 (H524 cells) | IC50 doses compared with Teri (panel of SCLC cell lines; ten SCLC cell lines) | cell proliferation (SBC3 cells [1]) | cell proliferation (SBC5 cells [2]) | Mitochondrial elongation (Airyscan imaging) (SBC3 cells [3]; SBC3) | effect on mitochondrial or nuclear areas (SBC3 cells [3]; SBC3) | effect on mitochondrial areas (SBC5 cells [4]) | Nuclear area (SBC5 cells [4]; SBC5, 20 μM) | cell cytotoxicity at low doses (panel of SCLC cell lines; H69, H82, H446, SBC3, and SBC5 cells) | IC50 (panel of SCLC cell lines; Homo sapiens, five of ten SCLC cell lines, read-out: IC50 in the five sensitive cell lines) | Mitochondrial area (SBC3 cells [3]; SBC3, 10 μM) | Nuclear size (area) (SBC3 cells [3]; SBC3, 10 μM) | Mitochondrial area (SBC3 cells [3]; SBC3, 20 μM) | Nuclear size (area) (SBC3 cells [3]; SBC3, 20 μM) | Nuclear area (SBC5 cells [4]; SBC5, 10 μM) |
| --- | --- | --- | --- | --- | --- | --- | --- | --- | --- | --- | --- | --- | --- | --- | --- | --- | --- |
| Cc1oncc1C(=O)Nc1ccc(C(F)(F)F)cc1 [Leflunomide, leflunomide] | > 152 µM | 152 µM | 133 µM | much higher | inhibited cell proliferation in a dose-dependent manner | inhibited cell proliferation in a dose-dependent manner | visible | did not affect | not affected | 386.8±7.23 μm^2 | – | – | – | – | – | – | – |
| COc1ccc2[nH]c3c(c2c1)CCN[C@]31CS[C@@H]2c3c(OC(C)=O)c(C)c4c(c3[C@H](COC1=O)N1[C@@H]2[C@H]2c3c(cc(C)c(OC)c3O)C[C@@H]([C@@H]1O)N2C)OCO4 [Lurbinectedin, lurbinectedin] | – | – | – | – | – | – | – | – | – | – | drastically increased cell cytotoxicity | – | – | – | – | – | – |
| C/C(O)=C(\C#N)C(=O)Nc1ccc(C(F)(F)F)cc1 [Teriflunomide, teriflunomide] | 43.7 µM | 8.6 µM | 10.8 µM | – | inhibited cell proliferation in a dose-dependent manner | inhibited cell proliferation in a dose-dependent manner | visible | – | not affected | 369.8±5.94 μm^2 | – | < 11 µM | 569±19.9 μm^2 | 386.8±10.86 μm^2 | 604.8±28.9 μm^2 | 423.5±16.57 μm^2 | 369.5±6.15 μm^2 |

Source: patent US20250041313A1, “COMBINATION THERAPY FOR TREATMENT OF CANCER” (CITY OF HOPE, priority 2023, published 2025)
